Assay results reported in patent publication US9447156B2, “Methods and compositions for inhibiting neddylation of proteins” (St. Jude Children's Research Hospital, priority 2011, dated 2016).
Like-named read-outs stand apart in the source and are kept apart here. Positions of bridges follow the written chain, without caps; N, C: chain ends. Non-standard residues stand in square brackets, D forms with d. Residues, ends and D or L forms follow the SMILES beside them. No end group written: not given here. *: point of attachment. S5 = C=CCCC[C@](C)(N)C(=O)O; For = O=C*

How the values were obtained:
[1] = target: T1, hDcn1^P (Homo sapiens, UniProt Q96GG9); experiment: ITC binding of Ubc12/Ube2f peptides to hDcn1^P; details: for ΔH: change in enthalpy; for ΔS: change in entropy
T1 construct: hDcn1^P corresponds to residues 62 to the C-terminal residue 259 of hDcn1; GST (cleaved yes); made in house; host or cells: E. coli BL21(DE3)Gold
Experimental: (§1) Protein samples were buffer matched by desalting over a NAP-5 column (GE Healthcare) into 50 mM Hepes, 125 mM NaCl, 1 mM BME, pH 7.0 (ITC buffer). Peptides were dissolved by weight to a final concentration of 10 mM in ITC buffer and diluted further in ITC buffer as required for the experiments. Measurements were performed using a MicroCal ITC200. hDcn1^P or yDcn1^P were placed into the sample cell at a final concentration of 400 μM at 18° C. The peptide ligands (4 mM) were constantly injected (1.5 μl). The interval time between each injection was 3 minutes and the duration of each injection was 3 seconds. For titrations involving hE1 and yE1, proteins were placed into the sample cell at a final concentration of 25 μM at 22° C. Peptide ligands (250 μM) were constantly injected (2.5 μl). The interval time between each injection was three minutes and the duration of each injection was 5 seconds. For hCul1^ctd-Rbx1:hDcn1^P binding, proteins were buffer matched by desalting over a NAP-5 column in 25 mM Tris, 0.1 M NaCl, 1 mM BME, pH 7.6. hCul1^ctd-Rbx1 was placed into the sample cell at a final concentration of 55 μM at 22° C. hDcn1^P (550 μM) was constantly injected (2.5 μl). The interval time between each injection was 3 minutes and the duration of each injection was 5 seconds. Obtained spectra were evaluated using Origin (V 7.0) to determine heats of binding and Kd values.
The affinity of various peptides for hDcn1^P, hDcn2^P, hDcn3^P, hDcn4^P, and hDcn5^P was tested using isothermal titration calorimetry as described in Example 1 and is provided in Table 29.

[2] = target: T2, hE1 for Nedd8 (APPBP1-UBA3) (Homo sapiens, UniProt Q8TBC4); experiment: ITC binding of Ubc12 peptides to hE1; details: for Kd / ΔH / ΔS: ITC; for Kd: protein hE1, titrant Ubc12 peptide; for ΔH / ΔS: protein hE1; for ΔH: change in enthalpy; for ΔS: change in entropy
T2 construct: made in house; host or cells: E. coli
T2 sequence (Q8TBC4 22-463 limits assumed): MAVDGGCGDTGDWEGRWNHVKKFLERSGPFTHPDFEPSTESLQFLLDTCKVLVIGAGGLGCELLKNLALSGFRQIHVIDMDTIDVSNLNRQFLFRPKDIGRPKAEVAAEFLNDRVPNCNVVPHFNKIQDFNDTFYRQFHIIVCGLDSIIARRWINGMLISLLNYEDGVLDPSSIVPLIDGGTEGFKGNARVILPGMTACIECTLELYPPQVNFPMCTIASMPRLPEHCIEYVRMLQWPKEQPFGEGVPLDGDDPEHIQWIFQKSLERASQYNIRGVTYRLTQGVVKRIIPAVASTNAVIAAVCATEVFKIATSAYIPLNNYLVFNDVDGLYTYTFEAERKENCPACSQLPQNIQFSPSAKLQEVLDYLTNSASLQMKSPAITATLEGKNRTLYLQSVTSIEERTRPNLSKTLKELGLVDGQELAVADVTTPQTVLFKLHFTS
T2 sequence (Q13564 1-534 partner): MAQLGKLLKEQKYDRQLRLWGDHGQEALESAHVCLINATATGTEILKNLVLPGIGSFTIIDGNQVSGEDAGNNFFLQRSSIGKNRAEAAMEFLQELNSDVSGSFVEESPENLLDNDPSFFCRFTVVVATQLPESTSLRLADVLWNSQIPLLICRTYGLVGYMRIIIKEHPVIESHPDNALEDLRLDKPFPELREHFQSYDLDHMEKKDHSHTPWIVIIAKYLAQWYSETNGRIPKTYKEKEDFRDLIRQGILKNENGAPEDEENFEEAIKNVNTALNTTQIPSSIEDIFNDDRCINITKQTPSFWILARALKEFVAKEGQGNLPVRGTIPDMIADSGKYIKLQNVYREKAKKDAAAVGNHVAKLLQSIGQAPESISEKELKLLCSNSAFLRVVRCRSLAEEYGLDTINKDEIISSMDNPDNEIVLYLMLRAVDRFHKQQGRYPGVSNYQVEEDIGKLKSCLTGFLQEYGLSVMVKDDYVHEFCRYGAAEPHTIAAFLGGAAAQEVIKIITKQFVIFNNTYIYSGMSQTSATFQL
Experimental: as §1

[3] = target: T3, yDcn1^P (Saccharomyces cerevisiae, UniProt Q12395); experiment: ITC binding of Ubc12 peptides to yDcn1^P; set-up: species or system S. cerevisiae; details: ITC, protein yDcn1^P
T3 construct: made in house; host or cells: E. coli
T3 sequence (Q12395 70-269): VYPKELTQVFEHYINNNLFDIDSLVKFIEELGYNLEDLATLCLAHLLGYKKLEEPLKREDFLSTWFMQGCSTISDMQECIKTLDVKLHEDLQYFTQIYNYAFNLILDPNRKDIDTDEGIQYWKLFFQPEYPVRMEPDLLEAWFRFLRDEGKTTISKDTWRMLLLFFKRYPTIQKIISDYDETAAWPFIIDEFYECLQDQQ
Experimental: as §1, with “Measurements were performed using a MicroCal ITC200. hDcn1^P or yDcn1^P were placed into the sample cell at a final concentration of 400 μM at 18° C.” left out, “[…])” for “hDcn1^P (550 μM)”, “seconds.” for “seconds. Obtained spectra were evaluated using Origin (V 7.0) to determine heats of binding and Kd values.”

[4] = Table 29, peptides with amidated carboxy-terminus, read-out: Binding Kd for hDcn1^P
[5] = protein hDcn1^P, titrant Ubc12 peptide, read-out: Kd

T1 sequence (Q96GG9 62-259): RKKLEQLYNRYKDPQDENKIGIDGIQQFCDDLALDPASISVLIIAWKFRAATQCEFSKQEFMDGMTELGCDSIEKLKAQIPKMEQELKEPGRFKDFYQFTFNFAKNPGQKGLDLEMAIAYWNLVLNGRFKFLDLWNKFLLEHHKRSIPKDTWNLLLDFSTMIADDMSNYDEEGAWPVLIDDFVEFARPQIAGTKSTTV

ΔH ([1]; protein hDcn1^P) | ΔS ([1]; protein hDcn1^P) [cal/mol/deg] | Kd [2] [nM] | ΔH [2] | ΔS [2] [cal/mol/deg] | Compound | other results
−3,386 cal/mol | 19.3 | – | – | – | CC[C@H](C)[C@H](NC(=O)[C@H](CCSC)NC(C)=O)C(=O)N[C@@H](CCCCN)C(=O)N[C@@H](CC(C)C)C(=O)N[C@@]1(C)CCCC=CCCC[C@@](C)(C(=O)N[C@@H](CCC(N)=O)C(=O)N[C@@H](CCCCN)C(=O)N[C@@H](CCCCN)C(N)=O)NC(=O)[C@H](CCCCN)NC(=O)[C@H](CC(C)C)NC(=O)[C@H](CO)NC1=O [Acetyl-hUbc12^1-12 (5:9Staple)] (Ac-MIKL[S5]SLK[S5]QKK-NH2; staple 5-9) | –
−4,992 cal/mol | 8.79 | 630 | −11,490 cal/mol | −11.0 | CC[C@H](C)[C@H](NC(=O)[C@H](CCSC)NC(C)=O)C(=O)N[C@@H](CCCCN)C(=O)N[C@@H](CC(C)C)C(=O)N[C@@H](Cc1ccccc1)C(=O)N[C@@H](CO)C(=O)N[C@@H](CC(C)C)C(=O)N[C@@H](CCCCN)C(=O)N[C@@H](CCC(N)=O)C(=O)N[C@@H](CCC(N)=O)C(=O)N[C@@H](CCCCN)C(=O)N[C@@H](CCCCN)C(N)=O [Acetyl-hUbc12^1-12] | –
−4,893 cal/mol | 5.79 | – | – | – | CC[C@H](C)[C@H](NC(=O)[C@H](CCSC)NC=O)C(=O)N[C@@H](CCCCN)C(=O)N[C@@H](CC(C)C)C(=O)N[C@@H](Cc1ccccc1)C(=O)N[C@@H](CO)C(=O)N[C@@H](CC(C)C)C(=O)N[C@@H](CCCCN)C(=O)N[C@@H](CCC(N)=O)C(=O)N[C@@H](CCC(N)=O)C(=O)N[C@@H](CCCCN)C(=O)N[C@@H](CCCCN)C(=O)N[C@@H](CCC(=O)O)C(=O)N[C@@H](CCC(=O)O)C(=O)N[C@@H](CCC(=O)O)C(=O)N[C@@H](CO)C(=O)N[C@@H](C)C(=O)NCC(=O)NCC(=O)N[C@H](C(=O)N[C@@H](CCCCN)C(=O)NCC(=O)N[C@@H](CO)C(=O)N[C@@H](CO)C(=O)N[C@@H](CCCCN)C(=O)N[C@@H](CCCCN)C(N)=O)[C@@H](C)O [Formyl-hUbcU^126] (For-MIKLFSLKQQKKEEESAGGTKGSSKK-NH2) | –
– | – | – | – | – | CC[C@H](C)[C@H](NC(=O)[C@H](CO)NC(=O)[C@H](CO)NC(=O)[C@H](CO)NC(=O)[C@H](CC(N)=O)NC(=O)[C@H](CCC(=O)O)NC(=O)[C@H](CC(N)=O)NC(=O)[C@H](CCC(=O)O)NC(=O)[C@H](CCCCN)NC(=O)[C@H](CCC(N)=O)NC(=O)[C@H](CCCCN)NC(=O)[C@H](CCCCN)NC(=O)[C@H](CCCCN)NC(=O)[C@H](CCC(N)=O)NC(=O)[C@H](CC(C)C)NC(=O)[C@H](CCC(N)=O)NC(=O)[C@H](CCCNC(=N)N)NC(=O)[C@H](CC(C)C)NC(=O)[C@H](CCCCN)NC(=O)[C@H](CC(C)C)NC(=O)[C@H](CCSC)NC=O)C(=O)N[C@@H](CCC(N)=O)C(=O)N1CCC[C@H]1C(=O)N[C@@H](CC(N)=O)C(N)=O [Formyl-yUbc12^1-24] (For-MLKLRQLQKKKQKENENSSSIQPN-NH2) | ΔH ([3]; change in enthalpy): 2,824 cal/mol; ΔS ([3]; change in entropy): 33.4 cal/mol/deg
– | – | – | – | – | CCCC[C@H](N)C(=O)N[C@H](C(=O)N[C@@H](CCCCN)C(=O)N[C@@H](CC(C)C)C(=O)N[C@@H](Cc1ccccc1)C(=O)N[C@@H](CO)C(=O)N[C@@H](CC(C)C)C(=O)N[C@@H](CCCCN)C(=O)N[C@@H](CCC(N)=O)C(=O)N[C@@H](CCC(N)=O)C(=O)N[C@@H](CCCCN)C(=O)N[C@@H](CCCCN)C(N)=O)[C@@H](C)CC [hUbc12^1−12 (NorLeu)] | Kd [1, 4]: > 400000 nM
1,719 cal/mol | 24.1 | 390 | −8,899 cal/mol | −1.24 | Ac-IKLFSLKQQKKEEESAGGTKGSSKK-NH2 [Acetyl-hUbc12^2-26] | Kd [1, 5]: > 100000 nM
– | – | – | – | – | Ac-IKLFSLKQQKKEEESAGGTKGSSKK-NH2 [hUbc12^Ac−2−26] | Kd [1, 4]: > 150000 nM
−6,107 cal/mol | 5.84 | 943 | −9,425 cal/mol | −4.79 | Ac-MIKLFSLKQQKKEEESAGGTKGSSKK-NH2 [Acetyl-hUbc12^1-26] | –
– | – | – | – | – | AcetylhUbc12^Ac1-12(5,9 Staple): Acetylated hUbc12 1-12 with Phe5 and Gln9 replaced with (S)-2-(4'-pentenyl)alanine, side-chains covalently linked (Ac-MIKL[S5]SLK[S5]QKK-NH2; staple 5-9) | binding to E1 ([2]; data not shown): no longer binds E1
1,259 cal/mol | 22.2 | 585 | −8,881 cal/mol | −1.99 | H-MIKLFSLKQQKKEEESAGGTKGSSKK-NH2 [hUbc12^1-26] | Kd [1, 5]: > 130000 nM
– | – | – | – | – | MIKLFSLKQQKKEEESAGGTKGSSKK-NH2 [hUbc12^1−26] | Kd [1, 4]: > 200000 nM
